Data set [1] deals with latent HIV in CD4+ T cells from ART-treated patients. As to the kind of experiment: Activation of HIV from latency in patient-derived CD4+ T cells (virion-associated HIV RNA in supernatant). Format: cell-based, human. An excerpt:
Nine HIV-infected individuals receiving ART for a median of 2.6 years (range 0.4–9.1) were studied. All study subjects maintained undetectable levels of plasma viremia (<50 copies/mL) at the time of study (S1 Table).
CD4^+ T cells were isolated from cryopreserved peripheral blood mononuclear cells (PBMCs) using a cell enrichment kit (StemCell Technologies). For patient samples 1–6, resting CD4^+ T cells were further isolated by depleting CD25^+, HLA-DR^+ and CD69^+ CD4^+ cells using PE-conjugated antibodies (BD Biosciences) and anti-PE microbeads (Miltenyi Biotec). CD4^+ T cells were incubated with RPMI 1640-based medium containing antiretroviral drugs consisting of T-20 (100 μg/mL), tenofovir (1 μM), and emtricitabine (1 μM), and test stimuli at concentrations indicated in the figures.
The copy number of virion-associated HIV RNA in the cell culture supernatants was measured using the Cobas Ampliprep/Cobas Taqman HIV-1 Test, Version 2.0 (Roche Diagnostics) following 36–48 hours of incubation of cells with the above study compounds. The limit of detection was 20 copies/mL.

The subject of another data set is murine splenocytes. As to the kind of experiment: In vivo bioactivity (CD69/CD25 in splenocytes) in C57/bl6 mice. Here is the method: (§1) C57/bl6 mice were obtained from the UCLA Department of Radiation Oncology. Compounds were suspended in DMSO and then further diluted in RF10 media to produce a final volume of 500 μL (containing a maximum 4% DMSO). These 500 μL volumes were administered to mice by intraperitoneal injection. Mice were monitored for acute toxicities and then sacrificed at the indicated times. Spleens were removed and disaggregated using a steel mesh, and then filtered through a 40 μm filter to produce a single-cell suspension. The resultant splenocytes were then stained for flow cytometry to analyze surface expression of relevant markers.
During standard flow cytometry staining, samples of 10^5 cells were suspended in 50 μL of a 1:1 dilution of phosphate buffered saline (PBS):Human AB serum (Sigma). Staining of C57/bl6 mouse splenocytes was performed by adding the following anti-mouse fluorescent conjugated antibodies: CD3-Fluorescein isothiocyanate (FITC, eBioscience 11-0032-82); CD69-Phycoerythrin (PE, eBioscience 12-0691-83); and CD4-Allophycocyanin (APC, eBioscience 17-0041-83). In some experiments CD4-APC was replaced with CD25-APC (eBioscience 17-0251-82) and CD4-Phycoerythrin Cyanin 7 (PC7, eBioscience 25-0041-82). For humanized mouse studies, PBMC and splenocytes from BLT mice were stained with anti-mouse CD45-Alexa 700 (Biolegend 103128) and the following anti-human antibodies: CD45-e450 (eBioscience 48-0459-42); CD3-APC-780 (eBioscience; 47-0038-42); CD4-V500 (BD biosciences; 560768); CD8-Peridinin chlorophyll protein (PerCP)-710 (eBioscience 46-0087-42); CD25-PE (Beckman IM0479U); CD69-APC (Biolegend 310910); CD14-PE-Cy7 (Biolegend 325618). Cells were separately stained for anti-human CD45 e450- (eBioscience 48-0459-42) and anti-HA-Biotin PE (Roche 12158167001) followed by a secondary Streptavidin, R-Phycoerythrin Conjugate (Invitrogen s866) stain. This two-step stain was performed by incubating 1-2x10^6 cells at 4°C for 20–30 min, washing with 2% FBS in PBS, then adding the secondary stain, incubating again at 4°C for 20–30 min, and washing with 2% FBS in PBS before fixation with 2% paraformaldehyde. In some experiments, cell death was also evaluated by GHOST Red 780 (Tonbo Biosciences 13–0865) or Zombie Yellow (Biolegend 423104) stains. For this procedure, 10^6 cells were suspended in 100 μL PBS, and then the Zombie yellow and GHOST Red 780 dyes added. Cells were incubated for 20 min at room temperature in the dark and then washed twice with 2% FBS in PBS. Cells were then fixed with 2% paraformaldehyde and incubated for 20 min in the dark. In some experiments cells were then washed with 2% FBS in PBS, resuspended in 1:1 PBS:Human AB serum and then stained for human CD45 and HA, CD3-PE-Cy5 (Biolegend 300310), CD4-ECD (Beckman 6604727), CD8 Per-CO710 (eBioscience 46-0087-42) and CD3-APC (Cell signaling 9602S) as described above.

The next data set has as its system C57/bl6 mice. The experiment in a line: In vivo acute toxicity / tolerability in C57/bl6 mice. The settings on record: intraperitoneal injection, in some cases. As to the method:
as §1

The nature of data set [2]: Plasma cytokine quantification after in vivo administration. The settings on record: following administration to C57/bl6 mice. Here is the method:
Quantification of the levels of the murine cytokines IL-2, IL-6, MIP-1-alpha, and TNF-alpha in mouse plasma samples was performed using a custom Milliplex Mouse Cytokine/Chemokine Magnetic Kit (Millipore) according to the manufacturer’s recommendations. Wash steps were performed using a Bio-Plex II Wash Station (Bio-Rad), and the data were acquired using a Bio-Plex 200 System with high-throughput fluidics (Bio-Rad). The resultant data were analyzed using Bio-Plex Manager 6.1 software.

In data set [3] the test system is human T cells in BLT mice. The experiment in a line: Stimulation of human cells in uninfected humanized BLT mice (CD69, CD25). Format: in vivo. The settings on record: spleen and blood, one day after stimulation.
The test system of data set [4] is HA+ (HIV-expressing) cells. Format: in vivo, humanized BLT mice. The following applies: within 24 hours of activation, Ghost Red and Zombie Yellow.
Where [5] appears, read: CD4+ T cells from 3 ART-treated patients, 48h.

Structures are written as SMILES. Entries after “also recorded” stand apart in the source; their conditions may differ.

On to `C=C1C[C@H]2C[C@]3(O)O[C@H](C[C@@H](O)CC(=O)O[C@@H](CO)C[C@@H]4C/C(=C\C(=O)OC)[C@H](OC(=O)CCCCCCC)[C@@](O)(O4)C(C)(C)/C=C/[C@@H](C1)O2)C[C@H](OC(C)=O)C3(C)C` [SUW133], for which, in data set [1] (setting [5]), the “amount of cell-free virion-associated HIV RNA relative to maximal T cell stimulation (costimulation)” value is reported as “approximately 1/3”; the “virus production compared with other LRAs” value is “significantly outperformed panobinostat, vorinostat, JQ1, and bryostatin 1 treatment”. Besides, in data set [1] (resting CD4+ T cells from 6 aviremic patients, 50 nM, 36h), the “induction of latent virus (cell-free virion-associated viral RNA)” value is “induced significant levels of latent virus”. Further, the “CD4+ splenocytes expressing CD69” value in the data set with murine splenocytes (intraperitoneal injection, 24h post-injection, maximum over ascending doses) was “over 80%”. The “lowest dose inducing CD69 expression” value with murine splenocytes (intraperitoneal injection, C57/bl6 mice) is 1 µg. Moreover, the “CD25 expression on CD3+ T cells in spleen” value in the data set on murine splenocytes (single injection of 10 μg) is recorded as “remained unchanged”. Also, the “CD69 expression on splenocytes, time course” value with murine splenocytes (single injection of 10 μg, up to day 9) is reported as “transient expression of CD69 on the vast majority of murine splenocytes”. Also, the tolerated dose result with C57/bl6 mice is listed as “up to 30 μg per animal”. Also, in data set [2], the “plasma concentration of MIP-1-alpha” value is given as “no detectable increase”, the “plasma concentration of TNF-alpha” value is recorded as “no detectable increase” and the “plasma concentration of interleukin (IL)-2” value is given as “no detectable increase”. Moreover, the “plasma IL-6 levels” value in data set [2] (days 1 to 9) is “only a short-term elevation; also recorded: declined significantly between days 1 and 9 post-injection”. Also, in data set [3], the “CD25 expression in human T cells” value was “limited CD25 expression” and the “CD69 expression in human T cells” value is recorded as “robust activation of CD69”. Moreover, the “cells induced to express HIV that stained with cell death dyes” value in data set [4] was “up to 25%”.
